Data taken from patent publication US20090209525A1, “ENABLING METHODS TO IDENTIFY ALLOSTERIC MODULATORS OF RECEPTOR ACTIVITY” (priority 2006, published 2009).
Numbering of substitutions follows the chain as printed.

Assays:
[1] = target: T1, rat M1 wild-type receptor (RM1) (Rattus norvegicus, UniProt P08482); assay: ^3H-NMS radioligand binding, wild-type; details: for Shift: Ki divided by Ki for wild-type (reference)
T1 construct: expressed in transfected cells
T1 sequence (P08482 1-460): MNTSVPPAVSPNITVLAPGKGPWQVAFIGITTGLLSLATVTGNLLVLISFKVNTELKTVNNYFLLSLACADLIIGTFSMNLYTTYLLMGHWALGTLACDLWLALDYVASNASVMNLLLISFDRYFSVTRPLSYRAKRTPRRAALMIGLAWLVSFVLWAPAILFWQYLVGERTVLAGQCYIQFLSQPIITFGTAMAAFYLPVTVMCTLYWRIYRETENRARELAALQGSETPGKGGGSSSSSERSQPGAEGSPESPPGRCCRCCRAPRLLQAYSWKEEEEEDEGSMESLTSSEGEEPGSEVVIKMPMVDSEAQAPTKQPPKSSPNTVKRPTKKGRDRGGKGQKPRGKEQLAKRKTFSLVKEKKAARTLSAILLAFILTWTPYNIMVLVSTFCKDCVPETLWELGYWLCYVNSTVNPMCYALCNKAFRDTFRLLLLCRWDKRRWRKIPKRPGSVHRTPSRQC
Procedure: (§1) Briefly, cell homogenates are prepared from cells transiently or stably expressing wild type or mutant receptors. For transiently transfected cells, HEK cells are transfected with receptor of interest and cells harvested 48 hours post transfection. Cells expressing the receptor, stably or transiently, are harvested using phosphate buffered saline containing 5 mM EDTA, cells centrifuged at low speed and pellet re-suspended in binding buffer. Cell suspension is polytroned and centrifuged at 15,000×g. The pellet is resuspended in binding buffer and centrifugation repeated two more times. The washed cell homogenates are used for the competition binding assays. Competition binding assays are carried out in the presence of fixed amount of cell homogenate, fixed concentration of radioactively labeled orthosteric or allosteric ligand and varying concentrations of the cal under study using appropriate buffer. Incubations are carried out at room temperature for 2 hours. Incubations are terminated by filtration onto GF/B filters using Packard cell harvester followed by 3 washes with ice-cold buffer. Radioactivity retained on the filters is quantitated using Packard Top Count using Microscint 20 scintillation fluid. […] The membranes prepared above are incubated with a labeled ligand in 25 mM sodium phosphate, 5 mM magnesium chloride, 0.01% BSA two hours at room temperature. The binding reaction is stopped by rapid filtration onto GF/B filters. […] The pKd values (pKd=−log Kd) of the labeled ligand are calculated.
(§2) Radioligand binding assays were carried out in 25 mM sodium phosphate, 5 mM magnesium chloride, 0.01% BSA. Incubations were for two hours at room temperature, and reactions were stopped by rapid filtration onto GF/B filters.

rat M1 S109A receptor [2] = target: T2, rat M1 S109A receptor (Rattus norvegicus, UniProt P08482, S109A); assay: ^3H-NMS radioligand binding, S109A; details: for Shift: Ki S109A divided by Ki wild-type
T2 construct: expressed in transfected cells
T2 sequence (P08482 1-460 S109A): T1 sequence (P08482 1-460) with S109A
Procedure: as §1, §2

rat M1 Y106A receptor = target: T3, rat M1 Y106A receptor (Rattus norvegicus, UniProt P08482, Y106A); assay: Phosphatidyl inositol hydrolysis assay, Y106A; format: cell-based; details: Table 6; for Shift: EC50 Y106A divided by EC50 wild-type; for EC50 / Eff (%): PI hydrolysis, Y106A; for Eff (%): relative to wild-type response to that ligand (clozapine: title says fold-response)
T3 construct: expressed in transfected cells
T3 sequence (P08482 1-460 Y106A): T1 sequence (P08482 1-460) with Y106A

rat M1 S109A receptor [3] = target: T2, rat M1 S109A receptor; assay: Phosphatidyl inositol hydrolysis assay, S109A; format: cell-based; details: Table 6; for Shift: EC50 S109A divided by EC50 wild-type; for EC50 / Eff (%): PI hydrolysis, S109A; for Eff (%): relative to wild-type response to that ligand
rat M1 W101A receptor = target: T4, rat M1 W101A receptor (Rattus norvegicus, UniProt P08482, W101A); assay: Phosphatidyl inositol hydrolysis assay, W101A; format: cell-based; details: Table 6; for Shift: EC50 W101A divided by EC50 wild-type; for EC50 / Eff (%): PI hydrolysis, W101A; for Eff (%): relative to wild-type response to that ligand (clozapine: title says fold-response)
T4 construct: expressed in transfected cells
T4 sequence (P08482 1-460 W101A): T1 sequence (P08482 1-460) with W101A

[4] = target: T5, rat M1 wild-type receptors (Rattus norvegicus, UniProt P08482); assay: Phosphatidyl inositol hydrolysis assay, wild-type; format: cell-based; details: for Shift: EC50 divided by EC50 wild-type (reference)
T5 construct: expressed in transfected cells
T5 sequence (P08482 1-460): T1 sequence (P08482 1-460)

[5] = Table 5, PI hydrolysis, maximum response relative to carbachol
[6] = Table 6, PI hydrolysis, M1 WT, maximum response, normalized

| IC50 [1] | Shift [1] | IC50 (rat M1 S109A receptor [2]) | Shift (rat M1 S109A receptor [2]) | Shift (rat M1 Y106A receptor) | EC50 (rat M1 Y106A receptor) | Eff (%) (rat M1 Y106A receptor) | Shift (rat M1 S109A receptor [3]) | EC50 (rat M1 S109A receptor [3]) | Eff (%) (rat M1 S109A receptor [3]) | Shift (rat M1 W101A receptor) | EC50 (rat M1 W101A receptor) | Eff (%) (rat M1 W101A receptor) | Eff (%) [4, 5] | EC50 ([4]; Table 5, PI hydrolysis, wild-type) | Shift ([4]; Table 6) | pEC50 ([4]; Table 6, PI hydrolysis, M1 WT) | Eff (%) [4, 6] | EC50 ([4]; Table 6, PI hydrolysis, M1 WT) | Structure (SMILES) |
| --- | --- | --- | --- | --- | --- | --- | --- | --- | --- | --- | --- | --- | --- | --- | --- | --- | --- | --- | --- |
| 1260 nM | 1 | 1580 nM | 1 | 4 | 251 nM | 110 ± 22% | 1 | 79.4 nM | 85 ± 11% | 0.03 | 1.58 nM | 112 ± 6% | 99 ± 20% | 50.1 nM | 1 | 7.3 ± 0.1 | 100 ± 7% |  | CCCCC1CCN(CCCN2C(=O)COc3cc(F)ccc32)CC1 [AC-260584, 4-[3-(4-Butyl-piperidin-1-yl)-propyl]-7-fluoro-4H-benzo [1,4]oxazin-3-one] |
| 158 nM | 1 | 631 nM | 4 | 3 | 200 nM | 40 ± 4% | 4 | 200 nM | 47 ± 17% | 6 | 316 nM | 54 ± 11% | 44 ± 17% |  | 1 |  | 55 ± 8% | 100 nM | Clc1ccc2c(c1)N=C(N1CCNCC1)c1ccccc1N2 [NDMC, 8-chloro-11-(1-piperazinyl)-5H-dibenzo [b,e] [1,4] diazepine] |

| Structure (SMILES) | IC50 [1] | Shift [1] | IC50 (rat M1 S109A receptor [2]) | Shift (rat M1 S109A receptor [2]) | Shift (rat M1 Y106A receptor) | EC50 (rat M1 Y106A receptor) | Eff (%) (rat M1 Y106A receptor) | Shift (rat M1 S109A receptor [3]) | EC50 (rat M1 S109A receptor [3]) | Eff (%) (rat M1 S109A receptor [3]) | Shift (rat M1 W101A receptor) | EC50 (rat M1 W101A receptor) | Eff (%) (rat M1 W101A receptor) | Eff (%) [4, 5] | EC50 ([4]; Table 5, PI hydrolysis, wild-type) | Shift ([4]; Table 6) | pEC50 ([4]; Table 6, PI hydrolysis, M1 WT) | Eff (%) [4, 6] | EC50 ([4]; Table 6, PI hydrolysis, M1 WT) |
| --- | --- | --- | --- | --- | --- | --- | --- | --- | --- | --- | --- | --- | --- | --- | --- | --- | --- | --- | --- |
| CCCCC1CCN(CCCC(=O)c2ccccc2C)CC1 [AC-42, 4-n-butyl-1-[4-(2-methylphenyl)-4-oxo-1-butyl] piperidine hydrogen chloride] | 5010 nM | 1 | 2510 nM | 0.5 |  |  |  |  |  |  |  |  |  |  |  |  |  |  |  |
